Data on 20 compounds can be found in US9364492B2, “Method for glycosylation of flavonoid compounds” (SUNTORY HOLDINGS LIMITED, priority 2007, dated 2016).

In data set [1] the test system is TRa2. Nature of the data set: Glycosidase activity of TRa2 on sugars, TLC. It is filed as biochemical, Trichoderma viride. To be noted: 0.5% sugar, 20 mM acetate buffer pH 5.0, 50° C., 1 hour. Here is the method:
The culture supernatant (500 μl) was concentrated about 5-fold using Microcon YM-30 (Amicon). The above concentrate (10 μl) was added to 100 μl of 20 mM acetate buffer (pH 5.0) containing 0.5% maltose, maltotriose, maltotetraose, dextrin, α-cyclodextrin, β-cyclodextrin or γ-cyclodextrin, and reacted at 50° C. for 1 hour.
After completion of the reaction, each sample was analyzed by TLC as follows. The plate used was a silica gel G-60 plate (Merck & Co., Inc.), and the developing solution used was 2-propanol:acetone:0.5 M lactic acid=2:2:1. For detection, the plate was sprayed with sulfuric acid:ethanol=1:9, air-dried and then heated on a hot plate. As a result, none of the sugars was degraded in a culture solution of the control strain (strain C-1) transformed with vector pYE22m.

Data set [2] in a line: Heat stability of glycoside. To be noted: 100 μM in 10 mM potassium phosphate buffer pH 7.0, 4° C. to 100° C., 0 to 4 hours. It is filed as physicochemical. Here is the method:
After 10 mM potassium phosphate buffer (pH 7.0, 30 μl) containing 100 μM (+)-catechin or 4′-O-α-D-glucopyranosyl-(+)—catechin obtained in Example 4 was treated at different temperatures ranging from 4° C. to 100° C. for 0 to 4 hours, each sample was transferred on ice and mixed with 0.1% TFA (60 μl), followed by HPLC analysis in the same manner as shown in Example 1.

Data set [3] can be described thus: Solubility of glycoside in water. The format is physicochemical. Here is the method: (+)-Catechin or 5-O-α-D-glucopyranosyl-(+)-catechin obtained in Example 3 was added to water at different concentrations ranging from 10 to 450 mg/ml and dissolved by vigorous stirring, followed by centrifugation to remove precipitates. The supernatant was analyzed by HPLC to quantify the amounts of (+)-catechin and 5-O-α-D-glucopyranosyl-(+)-catechin. The same procedure was also repeated to study the solubility of (−)-epigallocatechin-3-β-gallate or 5-O-α-D-glucopyranosyl-(−)-epigallocatechin-3-O-gallate.

Data set [4] concerns TRa2. The data set can be described thus: Substrate specificity: glycosylation of acceptor compounds with dextrin by crude TRa2 enzyme solution, HPLC. It is filed as biochemical, Trichoderma viride. To be noted: 0.5 mM or 10 mM glycosyl acceptor compound, 10 mg dextrin, pH 5.2, 45° C., 24 hr. Here is the method:
The strain TRa2-1 was cultured overnight at 30° C. with shaking in 10 ml YPD medium. After reaching the resting phase, the culture solution was inoculated into the same medium (2% (v/v)) and cultured with shaking at 30° C. for 3 days. After culturing, the supernatant was collected by centrifugation and concentrated 5-fold to give a crude enzyme solution of TRa2. The reaction was performed at 45° C. for 24 hr in 100 μl enzyme reaction solution containing 0.5 mM or 10 mM glycosyl acceptor compound ((+)-catechin, (−)-epigallocatechin-3-O-gallate, esculetin, naringenin, quercetin, daidzein, genistein or kaempferol), 10 mg dextrin, 100 mM acetate buffer (pH 5.2) and the crude enzyme solution, followed by HPLC analysis.

Data set [5] relates to Cellulase “Onozuka” RS. Nature of the data set: Glycosyl donor selectivity 2: (+)-catechin, Cellulase “Onozuka” RS and each glycosyl donor, HPLC. It is filed as biochemical, Trichoderma viride. The settings on record: substance as glycosyl donor (10 mg); (+)-catechin 3 mg; 50° C., 1 day, pH 5. Here is the method:
(+)-Catechin (3 mg) was mixed with Cellulase “Onozuka” RS (10 mg), each glycosyl donor (10 mg) and 0.1 M acetate buffer (100 μl, pH 5), followed by stirring at 50° C. for 1 day. The glycosyl donors used were maltose, maltotriose, maltotetraose, maltopentaose, maltohexaose, maltoheptaose and dextrin (Nacalai Tesque, Inc., Japan), as well as γ-cyclodextrin (Wako Pure Chemical Industries, Ltd., Japan). After the reaction, the centrifuged supernatant was diluted 10-fold and analyzed by HPLC.

Data set [6] relates to Cellulase “Onozuka” RS. The data set can be described thus: Glycosyl donor selectivity 1: (+)-catechin, Cellulase “Onozuka” RS and each glycosyl donor, HPLC. The format is biochemical, Trichoderma viride. The settings on record: substance as glycosyl donor (20 mg); (+)-catechin 6 mg; 50° C., 1 day, pH 5. Here is the method: (+)-Catechin (6 mg) was mixed with Cellulase “Onozuka” RS (20 mg), each glycosyl donor (20 mg) and 0.1 M acetate buffer (200 μl, pH 5), followed by stirring at 50° C. for 1 day. After the reaction, the centrifuged supernatant was diluted 10-fold and analyzed by HPLC. The glycosyl donors used were cellobiose (Sigma), dextran (Sigma), maltose (Nacalai Tesque, Inc., Japan), carboxymethylcellulose sodium (Nacalai Tesque, Inc., Japan), soluble starch (Nacalai Tesque, Inc., Japan), dextrin (Nacalai Tesque, Inc., Japan), isomaltooligosaccharide (Wako Pure Chemical Industries, Ltd., Japan), α-cyclodextrin (Wako Pure Chemical Industries, Ltd., Japan), γ-cyclodextrin (Wako Pure Chemical Industries, Ltd., Japan) and trehalose dihydrate (Nacalai Tesque, Inc., Japan).

Turning to `OC[C@H]1O[C@H](O[C@H]2[C@H](O)[C@@H](O)C(O)O[C@@H]2CO)[C@H](O)[C@@H](O)[C@@H]1O` (mixture of isomers) [Maltose, maltose], the “degradation of sugar in culture solution of strain TRa2-1” value (“degradation of sugar” for short) in data set [1] is listed as “no degradation”.

`OC[C@H]1O[C@H](Oc2ccc([C@H]3Oc4cc(O)cc(O)c4C[C@@H]3O)cc2O)[C@H](O)[C@@H](O)[C@@H]1O` [4′-O-α-D-glucopyranosyl-(+)-catechin]: the “heat stability (% remaining)” value in data set [2] is recorded as “more stable against heat than catechin”. Consider `OC[C@H]1O[C@H](Oc2cc(O)cc3c2C[C@H](O)[C@@H](c2ccc(O)c(O)c2)O3)[C@H](O)[C@@H](O)[C@@H]1O` [5-O-α-D-glucopyranosyl-(+)-catechin], for which, in data set [3], the “solubility relative to (+)-catechin” value is “at least 40 fold”. In the case of `O=C(O[C@@H]1Cc2c(O[C@H]3O[C@H](CO)[C@@H](O)[C@H](O)[C@H]3O)cc(O)cc2O[C@@H]1c1cc(O)c(O)c(O)c1)c1cc(O)c(O)c(O)c1` [5-O-α-D-glucopyranosyl-(−)-epigallocatechin-3-O-gallate], in data set [3] (water), the “solubility compared to (−)-epigallocatechin-3-O-gallate” value is reported as “significantly increased solubility”.

In the case of `Oc1cc(O)c2c(c1)O[C@H](c1ccc(O)c(O)c1)[C@@H](O)C2` [(+)-catechin], the water solubility result in data set [3] is on record as “substantially insoluble in water”. For the same compound, the “area ratio (%) between acceptor compound and glycoside product” value in data set [4] was found to be 10%. For `OC[C@H]1O[C@H](O[C@H]2[C@H](O)[C@@H](O)[C@@H](O[C@H]3[C@H](O)[C@@H](O)[C@@H](O[C@H]4[C@H](O)[C@@H](O)C(O)O[C@@H]4CO)O[C@@H]3CO)O[C@@H]2CO)[C@H](O)[C@@H](O)[C@@H]1O` (some centres unmarked) [Maltotetraose, maltotetraose], in data set [1], the “degradation of sugar” value is “degraded”. Besides, in data set [5], the “Product (% area) 5-Glc” value amounted to 7.15 % area and the “Product (% area) 7-Glc” value is given as 1.60 % area. With `O=c1c(-c2ccc(O)cc2)coc2cc(O)ccc12` [daidzein], the “area ratio (%) between acceptor compound and glycoside product” value in data set [4] came out at 10.7%. Same read-out and setting: the figure for `O=c1ccc2cc(O)c(O)cc2o1` [esculetin] is 3.5%; for `O=c1c(-c2ccc(O)cc2)coc2cc(O)cc(O)c12` [genistein] it is 6.8%; for `O=c1c(O)c(-c2ccc(O)cc2)oc2cc(O)cc(O)c12` [kaempferol] it is 3.1%. For `O=C1C[C@@H](c2ccc(O)cc2)Oc2cc(O)cc(O)c21` [naringenin], in data set [4], the “area ratio (%) between acceptor compound and glycoside product” value is recorded as 4.4%. On the same count and under the same terms, for `O=c1c(O)c(-c2ccc(O)c(O)c2)oc2cc(O)cc(O)c12` [quercetin] the value was 9.4%. Take `OC[C@H]1O[C@@H]2O[C@H]3[C@H](O)[C@@H](O)[C@@H](O[C@H]4[C@H](O)[C@@H](O)[C@@H](O[C@H]5[C@H](O)[C@@H](O)[C@@H](O[C@H]6[C@H](O)[C@@H](O)[C@@H](O[C@H]7[C@H](O)[C@@H](O)[C@@H](O[C@H]1[C@H](O)[C@H]2O)O[C@@H]7CO)O[C@@H]6CO)O[C@@H]5CO)O[C@@H]4CO)O[C@@H]3CO` [α-Cyclodextrin, α-cyclodextrin]: the “degradation of sugar” value in data set [1] was “no degradation”. Take `OC[C@H]1O[C@@H]2O[C@H]3[C@H](O)[C@@H](O)[C@@H](O[C@H]4[C@H](O)[C@@H](O)[C@@H](O[C@H]5[C@H](O)[C@@H](O)[C@@H](O[C@H]6[C@H](O)[C@@H](O)[C@@H](O[C@H]7[C@H](O)[C@@H](O)[C@@H](O[C@H]8[C@H](O)[C@@H](O)[C@@H](O[C@H]1[C@H](O)[C@H]2O)O[C@@H]8CO)O[C@@H]7CO)O[C@@H]6CO)O[C@@H]5CO)O[C@@H]4CO)O[C@@H]3CO` [β-cyclodextrin]: the “degradation of sugar” value in data set [1] is listed as “no degradation”.

In the case of `OC[C@H]1O[C@@H]2O[C@H]3[C@H](O)[C@@H](O)[C@@H](O[C@H]4[C@H](O)[C@@H](O)[C@@H](O[C@H]5[C@H](O)[C@@H](O)[C@@H](O[C@H]6[C@H](O)[C@@H](O)[C@@H](O[C@H]7[C@H](O)[C@@H](O)[C@@H](O[C@H]8[C@H](O)[C@@H](O)[C@@H](O[C@H]9[C@H](O)[C@@H](O)[C@@H](O[C@H]1[C@H](O)[C@H]2O)O[C@@H]9CO)O[C@@H]8CO)O[C@@H]7CO)O[C@@H]6CO)O[C@@H]5CO)O[C@@H]4CO)O[C@@H]3CO` [γ-Cyclodextrin, γ-cyclodextrin], the “degradation of sugar” value in data set [1] is “degraded”. The results for the “Product (% area) 5-Glc” value in data set [5] and in data set [6] were 14.53 % area and 14.69 % area, respectively. The entries for the “Product (% area) 7-Glc” value in data set [5] and in data set [6] were 4.73 % area and 5.91 % area, respectively.

Regarding (−)-epigallocatechin-3-O-gallate, the “area ratio (%) between acceptor compound and glycoside product” value in data set [4] is 17.7%. For maltoheptaose, in data set [5], the “Product (% area) 5-Glc” value is given as 7.39 % area and the “Product (% area) 7-Glc” value came out at 1.97 % area. With maltohexaose, in data set [5], the “Product (% area) 5-Glc” value was 7.89 % area and the “Product (% area) 7-Glc” value was found to be 2.06 % area. For maltopentaose, in data set [5], the “Product (% area) 5-Glc” value stood at 7.87 % area and the “Product (% area) 7-Glc” value came to 1.98 % area.

Turning to maltotriose, the “degradation of sugar” value in data set [1] is given as “degraded”. Also, in data set [5], the “Product (% area) 5-Glc” value was 2.54 % area and the “Product (% area) 7-Glc” value is 0.51 % area.
